Like-named read-outs stand apart in the source and are kept apart here.
Key:
[1] = target: T1, EGFR[T790M/C797S/d746-750] (Homo sapiens, UniProt P00533, C797S/DEL746-750/T790M); test: Inhibition of EGFR[T790M/C797S/d746-750] biochemical enzymatic activity (HTRF); conditions: EGFR T790M-C797S-Del19, 1 mM ATP, 1 h, room temperature, read-out: IC50 (nM) @T790M - C797S - Del19
T1 construct: purchased Carna Bio
Procedure, shortened: (§1)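 In a buffer with 5 mM MgCl2, 1 mM MnCl2, 1 mM DTT and 0.01% CHAPS, enzyme turnover of 1 μM biotinylated TK substrate at 1 mM ATP is followed by HTRF after 1 h at room temperature. IC50 is obtained by a four-parameter fit.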

EGFR L858R/T790M = target: T2, EGFR L858R/T790M (Homo sapiens, UniProt P00533, L858R/T790M); test: Inhibition of EGFR L858R/T790M biochemical enzymatic activity (HTRF); conditions: EGFR L858R-T790M, 1 mM ATP, 1 h, room temperature, read-out: IC50 (nM) @L858R-T790M
T2 construct: purchased Carna Bio
Procedure, shortened: as §1

EGFR Exon19Del = target: T3, EGFR Exon19Del (Homo sapiens, UniProt P00533, DEL746-750); test: Inhibition of EGFR Exon19Del biochemical enzymatic activity (HTRF); conditions: EGFR Del19, 1 mM ATP, 1 h, room temperature, read-out: IC50 @Del19
T3 construct: purchased Carna Bio
Procedure, shortened: as §1

EGFR (C797S L858R) = target: T4, EGFR (C797S L858R) (Homo sapiens, UniProt P00533, C797S/L858R); test: Inhibition of EGFR (C797S L858R) biochemical enzymatic activity (HTRF); conditions: EGFR L858-C797S, 1 mM ATP, 1 h, room temperature, read-out: IC50 (nM) @L858-C797S
T4 construct: purchased signalchem
Procedure, shortened: as §1

EGFR L858R = target: T5, EGFR L858R (Homo sapiens, UniProt P00533, L858R); test: Inhibition of EGFR L858R biochemical enzymatic activity (HTRF); conditions: 1 mM ATP, 1 h, room temperature, read-out: IC50 (nM) @L858R
T5 construct: purchased Carna Bio
Procedure, shortened: as §1

EGFR Exon19Del/T790M = target: T6, EGFR Exon19Del/T790M (Homo sapiens, UniProt P00533, DEL746-750/T790M); test: Inhibition of EGFR Exon19Del/T790M biochemical enzymatic activity (HTRF); conditions: EGFR Del19-T790M, 1 mM ATP, 1 h, room temperature, read-out: IC50 (nM) @Del19-T790M
T6 construct: purchased Carna Bio
Procedure, shortened: as §1

EGFR (d746-750 C797S) = target: T7, EGFR (d746-750 C797S) (Homo sapiens, UniProt P00533, C797S/DEL746-750); test: Inhibition of EGFR (d746-750 C797S) biochemical enzymatic activity (HTRF); conditions: EGFR Del19-C797S, 1 mM ATP, 1 h, room temperature, read-out: IC50 (nM) @Del19-C797S
T7 construct: purchased signalchem
Procedure, shortened: as §1

[2] = tested on: Ba/F3 cells expressing EGFR mutations; test: Cell proliferation assay, Ba/F3 cells expressing EGFR mutations (CellTiter-Glo, 72 hours); assay type: cell-based; conditions: CellTiter-Glo
Procedure, shortened: (§2)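 GI50 is the concentration giving 50% proliferation inhibition. Growth for this was normalised to a baseline viability reading taken when compound was added, and to DMSO wells. PC-9 (500 cells/well) and mutant-EGFR Ba/F3 (5000 cells/well) are treated after overnight seeding in RPMI1640-based medium.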

EGFR[T790M/C797S/L858R] = target: T8, EGFR[T790M/C797S/L858R] (Homo sapiens, UniProt P00533, C797S/L858R/T790M); test: Inhibition of EGFR[T790M/C797S/L858R] biochemical enzymatic activity (HTRF); conditions: EGFR T790M-C797S-L858R, 1 mM ATP, 1 h, room temperature, read-out: IC50 (nM) @T790M- C797S - L858R
T8 construct: purchased Carna Bio
Procedure, shortened: as §1

A-431 = test: Cell proliferation GI50, A-431 cells (Table 6); assay type: cell-based
EGFR wild type = target: T9, EGFR wild type (Homo sapiens, UniProt P00533); test: Inhibition of EGFR wild type biochemical enzymatic activity (HTRF); conditions: EGFR WT, 1 mM ATP, 1 h, room temperature, read-out: IC50 (nM) @WT
T9 construct: purchased Carna Bio
Procedure, shortened: as §1

PC-9 = test: Cell proliferation assay, PC-9 cells (CellTiter-Glo, 72 hours); assay type: cell-based; conditions: PC9 cells, CellTiter-Glo, read-out: PC9 GI50
Procedure, shortened: as §2

[3] = BaF3 cells, EGFR DEL19-C797S, read-out: DEL19-C797S/BaF3 GI50
[4] = BaF3 cells, EGFR DEL19-T790-C797S, read-out: DEL19-T790-C797S/BaF3 GI50
[5] = BaF3 cells, EGFR L858R, read-out: L858R/BaF3 GI50
[6] = BaF3 cells, EGFR L858R-C797S, read-out: L858R-C797S/BaF3 GI50
[7] = BaF3 cells, EGFR L858R-T790-C797S, read-out: L858R-T790-C797S/BaF3 GI50
[8] = BaF3 cells, EGFR L858R-T790M, read-out: L858R-T790M/BaF3 GI50
[9] = EGFR DEL19-T790M, read-out: DEL19-T790M GI50
[10] = Homo sapiens, A-431, A-431 cells

T8 sequence (P00533 25-1210 T790M/C797S/L858R): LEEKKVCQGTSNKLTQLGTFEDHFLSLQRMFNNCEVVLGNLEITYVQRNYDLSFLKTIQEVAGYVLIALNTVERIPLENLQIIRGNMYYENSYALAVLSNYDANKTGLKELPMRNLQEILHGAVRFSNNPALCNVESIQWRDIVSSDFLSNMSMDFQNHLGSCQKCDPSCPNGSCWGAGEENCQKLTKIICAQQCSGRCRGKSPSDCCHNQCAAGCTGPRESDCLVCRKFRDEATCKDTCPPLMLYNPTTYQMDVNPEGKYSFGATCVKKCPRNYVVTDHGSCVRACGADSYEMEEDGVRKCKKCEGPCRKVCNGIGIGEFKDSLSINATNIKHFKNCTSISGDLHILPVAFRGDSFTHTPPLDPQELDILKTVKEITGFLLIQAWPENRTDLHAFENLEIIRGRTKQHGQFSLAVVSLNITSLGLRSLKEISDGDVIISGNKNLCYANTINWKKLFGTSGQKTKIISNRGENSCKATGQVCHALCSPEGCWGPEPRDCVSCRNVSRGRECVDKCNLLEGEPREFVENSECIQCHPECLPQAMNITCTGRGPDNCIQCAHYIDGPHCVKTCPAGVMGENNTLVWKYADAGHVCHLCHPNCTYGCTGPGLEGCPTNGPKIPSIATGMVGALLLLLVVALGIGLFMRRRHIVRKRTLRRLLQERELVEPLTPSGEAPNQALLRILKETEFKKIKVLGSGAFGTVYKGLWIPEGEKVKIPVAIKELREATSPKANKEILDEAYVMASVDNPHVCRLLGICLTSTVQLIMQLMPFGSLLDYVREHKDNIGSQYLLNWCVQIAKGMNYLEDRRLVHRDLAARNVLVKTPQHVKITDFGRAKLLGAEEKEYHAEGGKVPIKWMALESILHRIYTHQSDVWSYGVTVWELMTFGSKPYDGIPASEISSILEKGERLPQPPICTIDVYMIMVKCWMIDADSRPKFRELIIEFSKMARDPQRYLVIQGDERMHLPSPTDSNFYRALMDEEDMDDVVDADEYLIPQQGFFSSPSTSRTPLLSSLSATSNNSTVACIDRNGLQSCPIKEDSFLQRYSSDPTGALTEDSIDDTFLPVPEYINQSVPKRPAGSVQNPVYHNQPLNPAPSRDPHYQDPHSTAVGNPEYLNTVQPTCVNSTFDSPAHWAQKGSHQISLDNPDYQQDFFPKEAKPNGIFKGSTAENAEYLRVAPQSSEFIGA
T2 sequence (P00533 25-1210 T790M/L858R): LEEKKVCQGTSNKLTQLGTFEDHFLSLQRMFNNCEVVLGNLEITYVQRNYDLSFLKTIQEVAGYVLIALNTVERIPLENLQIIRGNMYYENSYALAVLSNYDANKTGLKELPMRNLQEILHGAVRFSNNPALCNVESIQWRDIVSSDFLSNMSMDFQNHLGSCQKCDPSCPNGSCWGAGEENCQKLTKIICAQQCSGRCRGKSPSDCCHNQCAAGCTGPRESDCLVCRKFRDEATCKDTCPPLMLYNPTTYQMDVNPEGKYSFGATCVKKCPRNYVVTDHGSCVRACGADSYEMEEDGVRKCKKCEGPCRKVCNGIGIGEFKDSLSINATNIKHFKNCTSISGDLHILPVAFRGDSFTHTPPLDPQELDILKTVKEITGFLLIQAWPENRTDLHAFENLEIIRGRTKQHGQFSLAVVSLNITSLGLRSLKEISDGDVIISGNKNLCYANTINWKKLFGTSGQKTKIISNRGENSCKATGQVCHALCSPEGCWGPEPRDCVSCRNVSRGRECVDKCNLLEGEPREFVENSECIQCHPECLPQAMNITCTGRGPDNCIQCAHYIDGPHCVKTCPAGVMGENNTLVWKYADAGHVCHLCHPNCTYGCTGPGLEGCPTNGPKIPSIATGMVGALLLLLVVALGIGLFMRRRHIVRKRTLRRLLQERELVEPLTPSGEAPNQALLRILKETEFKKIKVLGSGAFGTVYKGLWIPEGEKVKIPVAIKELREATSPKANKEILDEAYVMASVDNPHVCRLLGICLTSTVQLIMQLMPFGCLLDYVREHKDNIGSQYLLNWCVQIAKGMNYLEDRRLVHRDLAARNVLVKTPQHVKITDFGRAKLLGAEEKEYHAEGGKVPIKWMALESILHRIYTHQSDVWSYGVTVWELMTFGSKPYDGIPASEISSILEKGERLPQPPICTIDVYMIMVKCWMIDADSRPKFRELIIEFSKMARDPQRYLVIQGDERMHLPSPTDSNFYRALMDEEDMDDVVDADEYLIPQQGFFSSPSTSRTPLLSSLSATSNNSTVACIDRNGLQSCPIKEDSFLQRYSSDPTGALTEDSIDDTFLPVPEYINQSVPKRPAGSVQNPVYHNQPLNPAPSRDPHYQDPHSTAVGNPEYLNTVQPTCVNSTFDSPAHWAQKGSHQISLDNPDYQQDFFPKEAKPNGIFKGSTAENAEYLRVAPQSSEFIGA
T4 sequence (P00533 25-1210 C797S/L858R): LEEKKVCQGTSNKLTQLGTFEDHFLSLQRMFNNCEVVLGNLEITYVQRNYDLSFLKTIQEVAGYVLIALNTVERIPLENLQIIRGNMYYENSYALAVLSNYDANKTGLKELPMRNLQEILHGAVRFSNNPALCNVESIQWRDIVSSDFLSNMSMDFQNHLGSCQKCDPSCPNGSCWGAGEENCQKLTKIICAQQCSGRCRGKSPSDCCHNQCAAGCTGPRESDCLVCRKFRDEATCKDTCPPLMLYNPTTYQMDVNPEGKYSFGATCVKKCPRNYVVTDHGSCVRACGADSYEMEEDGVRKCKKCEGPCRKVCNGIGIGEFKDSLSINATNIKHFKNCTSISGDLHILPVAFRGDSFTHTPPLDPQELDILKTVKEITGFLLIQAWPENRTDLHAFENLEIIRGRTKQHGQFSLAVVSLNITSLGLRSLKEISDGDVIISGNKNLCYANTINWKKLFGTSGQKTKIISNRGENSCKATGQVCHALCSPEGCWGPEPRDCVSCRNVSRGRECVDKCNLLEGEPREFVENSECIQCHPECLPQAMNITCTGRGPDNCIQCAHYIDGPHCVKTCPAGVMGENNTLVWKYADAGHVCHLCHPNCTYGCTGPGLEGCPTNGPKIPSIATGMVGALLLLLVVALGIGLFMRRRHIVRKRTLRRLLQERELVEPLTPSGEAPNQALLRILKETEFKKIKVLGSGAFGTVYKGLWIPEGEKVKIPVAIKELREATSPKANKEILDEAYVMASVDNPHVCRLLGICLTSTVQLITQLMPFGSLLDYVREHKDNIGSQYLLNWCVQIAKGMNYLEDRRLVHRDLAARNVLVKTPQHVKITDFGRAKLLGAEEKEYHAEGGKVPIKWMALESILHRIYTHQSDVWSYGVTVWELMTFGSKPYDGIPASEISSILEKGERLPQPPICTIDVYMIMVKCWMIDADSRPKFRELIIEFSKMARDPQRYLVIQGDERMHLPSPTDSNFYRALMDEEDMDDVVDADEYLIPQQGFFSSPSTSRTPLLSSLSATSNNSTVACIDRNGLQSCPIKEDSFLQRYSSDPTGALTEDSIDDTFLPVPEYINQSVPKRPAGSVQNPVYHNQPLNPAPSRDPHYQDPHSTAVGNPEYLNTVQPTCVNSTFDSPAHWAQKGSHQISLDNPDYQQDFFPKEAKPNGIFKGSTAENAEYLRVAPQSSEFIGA
T5 sequence (P00533 25-1210 L858R): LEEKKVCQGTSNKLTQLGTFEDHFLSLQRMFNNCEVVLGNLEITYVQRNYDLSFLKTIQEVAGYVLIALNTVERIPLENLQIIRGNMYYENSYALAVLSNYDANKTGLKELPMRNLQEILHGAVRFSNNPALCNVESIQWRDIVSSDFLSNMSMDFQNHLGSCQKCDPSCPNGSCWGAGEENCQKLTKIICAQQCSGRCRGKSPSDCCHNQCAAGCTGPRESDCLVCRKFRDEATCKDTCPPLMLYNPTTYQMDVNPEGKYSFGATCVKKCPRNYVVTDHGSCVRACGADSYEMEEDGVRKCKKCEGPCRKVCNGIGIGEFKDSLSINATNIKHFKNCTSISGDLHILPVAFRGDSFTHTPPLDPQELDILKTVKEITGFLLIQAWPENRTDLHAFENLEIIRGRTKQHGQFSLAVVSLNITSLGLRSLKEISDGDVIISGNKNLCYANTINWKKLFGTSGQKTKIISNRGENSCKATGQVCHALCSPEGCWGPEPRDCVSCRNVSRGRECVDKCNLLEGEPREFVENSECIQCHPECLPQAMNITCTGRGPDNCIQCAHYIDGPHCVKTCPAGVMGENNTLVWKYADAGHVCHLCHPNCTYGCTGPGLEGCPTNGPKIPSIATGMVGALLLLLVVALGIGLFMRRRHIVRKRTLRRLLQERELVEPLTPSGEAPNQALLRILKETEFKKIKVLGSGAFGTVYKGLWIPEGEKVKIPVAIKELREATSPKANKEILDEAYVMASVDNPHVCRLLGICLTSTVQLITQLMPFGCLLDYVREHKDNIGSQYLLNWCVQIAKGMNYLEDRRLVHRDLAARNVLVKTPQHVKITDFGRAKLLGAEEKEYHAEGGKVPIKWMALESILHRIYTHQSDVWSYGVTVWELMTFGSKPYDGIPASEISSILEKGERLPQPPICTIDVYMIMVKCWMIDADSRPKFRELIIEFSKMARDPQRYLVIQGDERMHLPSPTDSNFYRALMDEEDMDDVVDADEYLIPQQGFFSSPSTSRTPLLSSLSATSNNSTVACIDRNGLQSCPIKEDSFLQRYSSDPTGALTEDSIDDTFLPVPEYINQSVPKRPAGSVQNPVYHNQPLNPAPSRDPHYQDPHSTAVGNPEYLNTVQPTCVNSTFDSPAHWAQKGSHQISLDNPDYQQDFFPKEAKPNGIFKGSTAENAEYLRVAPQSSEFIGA

Row | Structure (SMILES) | IC50 [1] [nM] | IC50 (EGFR L858R/T790M) [nM] | IC50 (EGFR Exon19Del) [nM] | IC50 (EGFR (C797S L858R)) [nM] | IC50 (EGFR L858R) [nM] | IC50 (EGFR Exon19Del/T790M) [nM] | IC50 (EGFR (d746-750 C797S)) [nM] | GI50 [2, 3] [nM] | GI50 [2, 4] [nM] | GI50 [2, 5] [nM] | GI50 [2, 6] [nM] | GI50 [2, 7] [nM] | GI50 [2, 8] [nM] | GI50 [2, 9] [nM] | IC50 (EGFR[T790M/C797S/L858R]) [nM] | GI50 (A-431; A-431 cells) [nM] | IC50 (EGFR wild type) [nM] | GI50 (PC-9) [nM] | GI50 (A-431; [10]) [nM]
1 | CN(C)C1CCN(c2ccc3nc4n(c3c2)C23CCC(CN(CCOc5c(cnn5C)-c5cc(cn(C)c5=O)C(=O)N4)C2)C3)CC1 (single isomer, unassigned) [Example A64A] | 2100 | > 5000 | 2160 | > 5000 | > 5000 | > 5000 | 1920 | 215 | 513 | 599 | 443 | 381 | 2100 | 755 | > 5000 | 6130 | > 5000 | 546 | 
2 | CN(C)[C@H]1CCN(c2ccc3nc4n(c3c2)C23CCC(CN(CCOc5c(cnn5C)-c5cc(cn(C)c5=O)C(=O)N4)C2)C3)C1 (single isomer, unassigned) [Example A66B] | 2.9 | 2.6 | 1.9 | 8.1 | 7.9 | 2.8 | 1.7 | 0.67 | 2.1 | 2.4 | 3.6 | 2.2 | 11 | 1.9 | 3.2 |  | 62 | 6.1 | 815
3 | CN1CCC12CCN(c1ccc3nc4n(c3c1)C13CCC(CN(CCOc5c(cnn5C)-c5cc(cn(C)c5=O)C(=O)N4)C1)C3)CC2 (single isomer, unassigned) [Example A67A] | 1640 | > 5000 | 1020 | > 5000 | > 5000 | 4070 | 1080 | 133 | 374 | 530 | 382 | 258 | 1040 | 463 | > 5000 | 6350 | > 5000 | 307 | 
4 | Cn1ncc2c1OCCN1CC3CCC(C3)(C1)n1c(nc3ccc(N4CC(N5CCOCC5)C4)cc31)NC(=O)c1cc-2c(=O)n(C)c1 (single isomer, unassigned) [Example A69A] | > 5000 | > 5000 | 1200 | > 5000 | > 5000 | > 5000 | 1780 | 227 | 366 | 643 | 598 | 503 | 1530 | 465 | > 5000 | 9380 | > 5000 | 723 | 
5 | Cn1ncc2c1OCCN1CC3CCC(C3)(C1)n1c(nc3ccc(N4CC(N5CCOCC5)C4)cc31)NC(=O)c1cc-2c(=O)n(C)c1 (single isomer, unassigned) [Example A69B] | 2.2 | 2.8 | 2.9 | 14 | 22 | 2 | 1.2 | 0.62 | 1.3 | 2.9 | 3.6 | 2 | 10 | 2 | 3 | 776 | 291 | 4.9 | 

The next compounds have a lower IC50 [1] than those just listed; values first:

Row | IC50 [1] [nM] | IC50 (EGFR L858R/T790M) [nM] | IC50 (EGFR Exon19Del) [nM] | IC50 (EGFR (C797S L858R)) [nM] | IC50 (EGFR L858R) [nM] | IC50 (EGFR Exon19Del/T790M) [nM] | IC50 (EGFR (d746-750 C797S)) [nM] | GI50 [2, 3] [nM] | GI50 [2, 4] [nM] | GI50 [2, 5] [nM] | GI50 [2, 6] [nM] | GI50 [2, 7] [nM] | GI50 [2, 8] [nM] | GI50 [2, 9] [nM] | IC50 (EGFR[T790M/C797S/L858R]) [nM] | GI50 (A-431; A-431 cells) [nM] | IC50 (EGFR wild type) [nM] | GI50 (PC-9) [nM] | GI50 (A-431; [10]) [nM] | Structure (SMILES)
6 | 2 | 2 | 1 | 2 | 2 | 1.8 | 0.95 | 0.71 | 0.92 | 0.91 | 1.7 | 0.79 | 4.9 | 1.3 | 1.9 | 973 | 3.6 | 3.3 |  | CN(C)C1CCN(c2ccc3nc4n(c3c2)C23CCC(CN(CCOc5c(cnn5C)-c5cc(cn(C)c5=O)C(=O)N4)C2)C3)CC1 (single isomer, unassigned) [Example A64B]
7 | 1.8 | 1.8 | 1.2 | 3.1 | 2.9 | 1.8 | 0.95 | 0.66 | 1.3 | 2.1 | 2.8 | 1.3 | 9.6 | 1.8 | 1.8 | 284 | 8.9 | 3.5 |  | CN1CC2CN(c3ccc4nc5n(c4c3)C34CCC(CN(CCOc6c(cnn6C)-c6cc(cn(C)c6=O)C(=O)N5)C3)C4)CC2C1 (single isomer, unassigned) [Example A68B]
8 | 1.7 | 2.4 | 0.94 | 7.4 | 16 | 1.7 | 0.97 | 0.71 | 2.2 | 2.7 | 3.5 | 2.8 | 11 | 2.4 | 1.8 | 538 | 148 | 5.6 |  | CN(C)C1CN(c2ccc3nc4n(c3c2)C23CCC(CN(CCOc5c(cnn5C)-c5cc(cn(C)c5=O)C(=O)N4)C2)C3)C1 (single isomer, unassigned) [Example A65B]
9 | 1.6 | 1.7 | 2.7 | 3.7 | 3.7 | 2 | 1.1 | 0.68 | 1.5 | 1.7 | 3.2 | 1.4 | 7.2 | 2 | 2.1 |  | 18 | 4.2 | 473 | CN(C)[C@@H]1CCN(c2ccc3nc4n(c3c2)C23CCC(CN(CCOc5c(cnn5C)-c5cc(cn(C)c5=O)C(=O)N4)C2)C3)C1 (single isomer, unassigned) [Example A66D]
10 | 1.2 | 1.1 | 0.65 | 1.2 | 1.1 | 1.3 | 0.48 | 0.64 | 0.92 | 0.79 | 1.9 | 0.84 | 3.5 | 1 | 1.1 | 712 | 2.1 | 2.5 |  | CN1CCC12CCN(c1ccc3nc4n(c3c1)C13CCC(CN(CCOc5c(cnn5C)-c5cc(cn(C)c5=O)C(=O)N4)C1)C3)CC2 (single isomer, unassigned) [Example A67B]

Reference: patent US20260365670A1, “EGFR INHIBITORS AND USES THEREOF” (DIZAL (JIANGSU) PHARMACEUTICAL CO., LTD., priority 2022, published 2026)
